Test results reported in EP2997966A1, “Naphthyl Sulfonamide Pyrrolidine Derivatives as KEAP-1 Modulators for the Treatment of Diabetes, Obesity, Dyslipidemia and Related Disorders” (SANOFI, priority 2014, dated 2016).

Molecular target: T1, human Keap1 kelch domain (amino acids Ala321-Thr609) (Homo sapiens, UniProt Q14145)
T1 construct: human Keap1 kelch domain (amino acids Ala321-Thr609)
Experiment: Keap1-Nrf2 peptide binding assay (fluorescence polarisation)
Conditions: binding to fluorescently labeled human Nrf2 peptide; 20 nM Keap1 kelch domain, 50 nM peptide
Protocol: Keap1-Nrf2 peptide binding assay
Two microliters of test compound in reaction buffer (phosphate-buffered saline, 2 mM DL-dithiothreitol, 0.015 % (v/v) Brij-35) containing 6 % (v/v) DMSO were mixed with two microliters of the Keap1 kelch domain in reaction buffer in a black 384-well small volume microtiter plate and incubated at ambient temperature for 15 minutes. Thereafter, two microliters were added of the fluorescently labeled Nrf2 peptide in reaction buffer, and the mixture was incubated for a further 30 minutes at ambient temperature. Final concentrations of the Keap1 kelch domain and the fluorescently labeled Nrf2 peptide were 20 nM and 50 nM, respectively.
Fluorescence polarization (FP) was measured at excitation and emission wavelengths of 635 nm and 660 nm, respectively. Positive controls for binding (two microliters of reaction buffer containing 6 % (v/v) DMSO instead of test compound in the same buffer) and negative controls (as positive controls, but without Keap1 kelch domain) were included on each microtiter plate.

T1 sequence (Q14145 321-609): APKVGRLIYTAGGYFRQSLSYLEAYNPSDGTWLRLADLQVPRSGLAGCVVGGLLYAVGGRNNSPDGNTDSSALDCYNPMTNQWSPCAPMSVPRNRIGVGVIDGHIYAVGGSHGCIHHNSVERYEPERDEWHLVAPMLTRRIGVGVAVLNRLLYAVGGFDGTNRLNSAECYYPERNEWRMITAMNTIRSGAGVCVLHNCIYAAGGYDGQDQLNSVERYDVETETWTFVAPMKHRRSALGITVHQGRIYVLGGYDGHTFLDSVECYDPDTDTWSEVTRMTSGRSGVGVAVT

Point of comparison: `Cc1ccc(Cl)cc1S(=O)(=O)Nc1ccc(N2CC[C@@H](C(=O)O)C2)c2ccccc12` [Example 43, (3R)-1-[4-[(5-chloro-2-methylphenyl)sulfonylamino]-1-naphthyl]pyrrolidine-3-carboxylic acid], IC50 1.2 µM. Against it:
- O=C(O)[C@@H]1CCN(c2ccc(NS(=O)(=O)c3cc(F)c(F)cc3Cl)c3ccccc23)C1 [Example 45, (3R)-1-[4-[(2-chloro-4,5-difluorophenyl)sulfonylamino]-1-naphthyl]pyrrolidine-3-carboxylic acid] — 3.8-fold higher, 4.5 µM
- O=C(O)[C@@H]1CCN(c2ccc(NS(=O)(=O)c3cc(F)cc(F)c3Cl)c3ccccc23)C1 [Example 46, (3R)-1-[4-[(2-chloro-3,5-difluorophenyl)sulfonylamino]-1-naphthyl]pyrrolidine-3-carboxylic acid] — 6.2-fold higher, 7.4 µM
- COc1ccc(S(=O)(=O)Nc2ccc(N3CC[C@@H](C(=O)O)C3)c3ccccc23)c(OC)c1 [Example 47, (3R)-1-[4-[(2,4-dimethoxyphenyl)sulfonylamino]-1-naphthyl]pyrrolidine-3-carboxylic acid] — 5.1-fold higher, 6.1 µM
- O=C(O)[C@@H]1CCN(c2ccc(NS(=O)(=O)c3cc(Cl)ccc3Cl)c3ccccc23)C1 [Example 48, (3R)-1-[4-[(2,5-dichlorophenyl)sulfonylamino]-1-naphthyl]pyrrolidine-3-carboxylic acid] — 2.1-fold higher, 2.5 µM
- Cc1c(S(=O)(=O)Nc2ccc(N3CC[C@@H](C(=O)O)C3)c3ccccc23)cnn1CC(C)C [Example 49, (3R)-1-[4-[(1-isobutyl-5-methyl-pyrazol-4-yl)sulfonylamino]-1-naphthyl]pyrrolidine-3-carboxylic acid] — 2.4-fold higher, 2.9 µM
- Cc1nn(C)c(Cl)c1S(=O)(=O)Nc1ccc(N2CC[C@@H](C(=O)O)C2)c2ncccc12 [Example 52, (3R)-1-[5-[(5-chloro-1,3-dimethyl-pyrazol-4-yl)sulfonylamino]-8-quinolyl]pyrrolidine-3-carboxylic acid] — 2.3-fold higher, 2.7 µM
- CCCn1ncc(S(=O)(=O)Nc2ccc(N3CC[C@@H](C(=O)O)C3)c3ccccc23)c1C [Example 54, (3R)-1-[4-[(5-methyl-1-propyl-pyrazol-4-yl)sulfonylamino]-1-naphthyl]pyrrolidine-3-carboxylic acid] — 1.5-fold higher, 1.8 µM
- Cc1c(S(=O)(=O)Nc2ccc(N3CC[C@@H](C(=O)O)C3)c3ncccc23)c2ccccc2n1C [Example 71, (3R)-1-[5-[(1,2-dimethylindol-3-yl)sulfonylamino]-8-quinolyl]pyrrolidine-3-carboxylic acid] — within 1.5-fold, 1.1 µM
- O=C(O)[C@@H]1CCN(c2ccc(NS(=O)(=O)c3cccc4c3OCCO4)c3ccccc23)C1 [Example 74, (3R)-1-[4-(2,3-dihydro-1,4-benzodioxin-5-ylsulfonylamino)-1-naphthyl]pyrrolidine-3-carboxylic acid] — 7.6-fold higher, 9.1 µM

Same assay, conditions: binding to fluorescently labeled human Nrf2 peptide; 20 nM Keap1 kelch domain, 50 nM peptide; read-out: IC50

Point of comparison: `Cc1c(S(=O)(=O)Nc2ccc(N3CC[C@@H](C(=O)O)C3)c3ccccc23)cnn1C1CCCC1` [Example 50, (3R)-1-[4-[(1-cyclopentyl-5-methyl-pyrazol-4-yl)sulfonylamino]-1-naphthyl]pyrrolidine-3-carboxylic acid], IC50 2.8 µM. Against it:
- COc1ccc(F)c(S(=O)(=O)Nc2ccc(N3CC[C@@H](C(=O)O)C3)c3ccccc23)c1 [Example 44, (3R)-1-[4-[(2-fluoro-5-methoxyphenyl)sulfonylamino]-1-naphthyl]pyrrolidine-3-carboxylic acid] — within 1.5-fold, 2.5 µM
- Cc1cc(C)c(C)c(S(=O)(=O)Nc2ccc(C3=CCC(C(=O)O)CC3)c3ccccc23)c1C (centres unmarked) [Example 57, 4-[4-[(2,3,5,6-tetramethylphenyl)sulfonylamino]-1-naphthyl]cyclohex-3-ene-1-carboxylic acid] — 4.7-fold lower, 0.6 µM
- Cc1cc(C)c(C)c(S(=O)(=O)Nc2ccc(N3CCC[C@@H](C(=O)O)C3)c3ccccc23)c1C [Example 58, (3R)-1-[4-[(2,3,5,6-tetramethylphenyl)sulfonylamino]-1-naphthyl]piperidine-3-carboxylic acid] — 10-fold lower, 0.27 µM
- Cc1cc(C)c(C)c(S(=O)(=O)Nc2ccc(N3CCC[C@H](C(=O)O)C3)c3ccccc23)c1C [Example 59, (3S)-1-[4-[(2,3,5,6-tetramethylphenyl)sulfonylamino]-1-naphthyl]piperidine-3-carboxylic acid] — 5.6-fold lower, 0.5 µM
- Cc1c(S(=O)(=O)Nc2ccc(N3CC[C@@H](C(=O)O)C3)c3ccccc23)sc2cccc(F)c12 [Example 60, (3R)-1-[4-[(4-fluoro-3-methyl-benzothiophen-2-yl)sulfonylamino]-1-naphthyl]pyrrolidine-3-carboxylic acid] — 22-fold lower, 0.13 µM
- Cc1c(S(=O)(=O)Nc2ccc(N3CC[C@@H](C(=O)O)C3)c3ccccc23)c2ccccc2n1C [Example 63, (3R)-1-[4-[(1,2-dimethylindol-3-yl)sulfonylamino]-1-naphthyl]pyrrolidine-3-carboxylic acid] — 11-fold lower, 0.26 µM
- Cn1ccc2c(S(=O)(=O)Nc3ccc(N4CC[C@@H](C(=O)O)C4)c4ccccc34)cccc21 [Example 64, (3R)-1-[4-[(1-methylindol-4-yl)sulfonylamino]-1-naphthyl]pyrrolidine-3-carboxylic acid] — 5.6-fold lower, 0.5 µM
- CCCCCCCCn1nc(C)c(S(=O)(=O)Nc2ccc(N3CC[C@@H](C(=O)O)C3)c3ccccc23)c1C [Example 65, (3R)-1-[4-[(3,5-dimethyl-1-octyl-pyrazol-4-yl)sulfonylamino]-1-naphthyl]pyrrolidine-3-carboxylic acid] — 15-fold lower, 0.19 µM
- Cc1c(S(=O)(=O)Nc2ccc(N3CC[C@@H](C(=O)O)C3)c3ncccc23)sc2cccc(F)c12 [Example 70, (3R)-1-[5-[(4-fluoro-3-methyl-benzothiophen-2-yl)sulfonylamino]-8-quinolyl]pyrrolidine-3-carboxylic acid] — 9.3-fold lower, 0.3 µM
- Cc1c(S(=O)(=O)Nc2ccc(N3CC[C@@H](C(=O)O)C3)c3ncccc23)sc2ccc(Cl)cc12 [Example 72, (3R)-1-[5-[(5-chloro-3-methyl-benzothiophen-2-yl)sulfonylamino]-8-quinolyl]pyrrolidine-3-carboxylic acid] — 7-fold lower, 0.4 µM
- CCCCCCCCn1nc(C)c(S(=O)(=O)Nc2ccc(N3CC[C@@H](C(=O)O)C3)c3ncccc23)c1C [Example 73] — 1.7-fold lower, 1.6 µM
- O=C(O)[C@@H]1CCN(c2ccc(NS(=O)(=O)c3ccc4c(c3)CCCC4)c3ccccc23)C1 [Example 77, (3R)-1-[4-(tetralin-6-ylsulfonylamino)-1-naphthyl]pyrrolidine-3-carboxylic acid] — 4.7-fold lower, 0.6 µM
